Experimental data as given in article PMC6562427, “A New Tyrosinase Inhibitor from the Red Alga Symphyocladia latiuscula (Harvey) Yamada (Rhodomelaceae)” (Marine Drugs, 2019).
Read-outs that look alike come from different tables or passages of the source.

What was measured:
[1] = test system: B16F10 melanoma cells; assay: Melanin content assay in α-MSH-stimulated cells; type: cell-based, mouse; conditions: for melanin content: α-MSH alone 151.72%; for effect on melanin content: 6.25, 12.5 and 25 µM
Procedure: Intracellular melanin content was determined according to a previously reported procedure with minor modifications. Briefly, B16F10 cells were seeded in a 24-well plate at 2 × 10,000 cells/well and incubated for 24 h in DMEM containing 10% FBS. Cells were pretreated with 6.25, 12.5, and 25 μM test compounds for 1 h and stimulated with 5 μM α-MSH for 48 h. […] The cells were washed with PBS and dissolved in 1 N NaOH containing 10% DMSO by boiling at 80 °C for 30 min. The cell lysates were centrifuged at 14,000 rpm for 20 min, and absorbance of the supernatant was measured at 405 nm. Melanin content was determined by normalizing the absorbance with total protein content.

[2] = molecular target: T1, tyrosinase in α-MSH-induced B16F10 melanoma cells (Mus musculus, UniProt P11344); assay: Cellular tyrosinase assay (L-DOPA oxidation); type: cell-based; conditions: 5 µM α-MSH 48 h; for intracellular tyrosinase level: α-MSH alone 215.73%; for effect on intracellular tyrosinase activity: 6.25, 12.5 and 25 µM
T1 construct: the supernatant was used as cellular tyrosinase solution; endogenous in cells; host or cells: B16F10 melanoma cells, α-MSH stimulated
T1 sequence (P11344 19-533): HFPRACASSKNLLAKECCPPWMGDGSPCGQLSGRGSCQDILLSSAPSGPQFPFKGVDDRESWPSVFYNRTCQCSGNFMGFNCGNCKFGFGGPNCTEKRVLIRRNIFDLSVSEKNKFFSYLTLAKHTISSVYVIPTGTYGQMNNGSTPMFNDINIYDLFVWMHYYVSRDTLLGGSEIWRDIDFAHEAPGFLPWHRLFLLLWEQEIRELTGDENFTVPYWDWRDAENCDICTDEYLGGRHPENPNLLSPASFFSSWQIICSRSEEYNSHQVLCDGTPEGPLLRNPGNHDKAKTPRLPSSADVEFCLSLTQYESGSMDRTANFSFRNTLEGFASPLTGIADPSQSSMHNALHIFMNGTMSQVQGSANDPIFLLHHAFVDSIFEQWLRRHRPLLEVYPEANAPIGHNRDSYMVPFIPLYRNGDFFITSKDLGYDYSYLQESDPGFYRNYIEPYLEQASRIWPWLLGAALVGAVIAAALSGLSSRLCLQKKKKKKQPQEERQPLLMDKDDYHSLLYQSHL
Procedure: Intracellular tyrosinase inhibitory activity was evaluated by measuring the rate of oxidation of L-DOPA [57]. […] The cells were washed with PBS and lysed with a radio immunoprecipitation assay buffer. The cell lysates were kept in a deep freezer (−80 °C) for 1 h. After defrosting the cell lysates, the cellular extracts were purified by centrifugation at 14,000 rpm for 20 min at 4 °C, and the supernatant was used as cellular tyrosinase solution. A total of 80 µL of supernatant and 20 µL of L-DOPA (2 mg/mL) were added to a 96-well plate and incubated at 37 °C for 45 min. Dopachrome formation was then measured spectrophotometrically at 450 nm using a microplate spectrophotometer (Molecular Devices). Intracellular tyrosinase activity was calculated as the percentage of control.

[3] = test system: tyrosinase protein expression in α-MSH-stimulated B16F10 cells; assay: Tyrosinase protein levels via western blotting; type: cell-based, mouse
Procedure: The cell suspensions were centrifuged at 16,000 × g for 5 min, and the cell pellets were lysed in a lysis buffer and incubated on ice for 10 min. The cell lysates were centrifuged at 16,000 × g for 10 min, and the supernatant (total protein) was normalized using a Bradford protein assay kit. Aliquots of protein were resolved by sodium dodecyl sulfate-polyacrylamide gel electrophoresis and transferred onto a nitrocellulose membrane. The membrane was blocked with 10% nonfat milk (w/v) in tris-buffered saline with tween (TBST) (0.1 M Tris-HCl, pH 7.5, 1.5 M NaCl, 1% Tween20) for 2 h and incubated for approximately 24 h with TYR primary antibody. The immunoblots were then incubated with appropriate secondary antibodies for 2 h and detected using an enhanced chemiluminescence detection kit.

[4] = molecular target: T2, mushroom tyrosinase (Agaricus bisporus, UniProt C7FF04); assay: Mushroom tyrosinase inhibitory assay (spectrophotometric); type: biochemical; conditions: mean ± SD, n = 3
T2 construct: purchased Sigma Aldrich
T2 sequence (C7FF04 1-392): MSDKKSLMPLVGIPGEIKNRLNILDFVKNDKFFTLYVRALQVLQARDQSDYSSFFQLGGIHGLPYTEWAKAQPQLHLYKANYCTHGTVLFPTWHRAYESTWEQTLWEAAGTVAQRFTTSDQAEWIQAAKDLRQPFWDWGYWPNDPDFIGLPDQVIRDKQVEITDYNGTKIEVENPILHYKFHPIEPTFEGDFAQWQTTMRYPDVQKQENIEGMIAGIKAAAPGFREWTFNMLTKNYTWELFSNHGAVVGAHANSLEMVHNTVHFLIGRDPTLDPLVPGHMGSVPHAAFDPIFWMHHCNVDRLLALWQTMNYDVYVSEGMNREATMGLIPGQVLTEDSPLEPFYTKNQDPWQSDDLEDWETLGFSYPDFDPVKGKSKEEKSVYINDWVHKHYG
Procedure: The inhibitory activity of mushroom tyrosinase was carried out using a spectrophotometric method described in [27] with slight modifications. […] Then, 20 µL of tyrosinase was added and incubated at room temperature for between 10 and 30 minutes. Absorbance was measured at 490 nm after incubation.

[5] = molecular target: T2, mushroom tyrosinase; assay: Kinetic study against mushroom tyrosinase (Lineweaver-Burk and secondary plots); type: biochemical
Procedure: The inhibition type was determined using a Lineweaver–Burk plot. The apparent slope (Kmapp/Vmaxapp) and intercept (1/Vmaxapp) versus different inhibitor concentrations was used to determine the inhibition constant (Ki). Different kinetic parameters were obtained for different concentrations of the substrate (0.5, 0.75, and 1 mM) and inhibitors (compound 1—0.0, 4.0, 6.6, and 9.3 µM; compound 3—0, 2.5, 2.6, and 2.7 µM). Sigmaplot version 12.0 (SPSS Inc., Chicago, IL, USA) was employed to generate the plots.

[6] = Cell viability, MTT assay; type: cell-based; conditions: mouse
Procedure: B16F10 mouse melanoma cells obtained from American Type Culture Collection (Manassas, VA, USA) were maintained in 10% FBS in high-glucose DMEM containing 100 U/mL penicillin and 100 μg/mL streptomycin at 37 °C in a humidified atmosphere with 5% CO2. Cytotoxicity was evaluated using a 3-(4,5-dimethylthiazol-2-yl)-2,5-diphenyltetrazolium bromide (MTT) assay. After 95% of confluence, B16F10 cells were seeded in a 96-well plate at 10,000 cells/well and incubated for 24 h in DMEM supplemented with 10% FBS. The cells were then fed fresh serum-free DMEM containing different concentrations (25 to 100 μM) of the test compounds and incubated for 48 h. After that, the cells were incubated with 100 μL of MTT at a concentration of […] in phosphate-buffered saline (PBS) for 2 h. Absorbance was measured at 490 nm by a microplate reader (Promega Corporation Instrument, USA) after 2 h of incubation. The viability of cells at 48 h upon co-treatment with α-MSH was evaluated by treating cells with 5 μM α-MSH 1 h after the treatment with test compounds.

[7] = IC50 L-Tyrosine, substrate L-tyrosine

Row | Structure (SMILES) | melanin content ([1]; 500 µM, 5 µM α-MSH 48 h) [%] | intracellular tyrosinase level ([2]; 500 µM) [%] | tyrosinase protein expression ([3]; arbutin pre-treatment (positive control)) | IC50 ([4]; IC50 L-DOPA, substrate L-DOPA) [µM] | IC50 [4, 7] [µM] | Ki [5] [µM] | Inhibition Type ([5]; substrate L-tyrosine, from Lineweaver-Burk plots) | viability at 48 h, 100 µM [6] [%] | melanin content ([1]; 25 µM, pretreated 1 h then 5 µM α-MSH 48 h) [%] | effect on melanin content ([1]; 5 µM α-MSH 48 h) | intracellular tyrosinase level ([2]; 25 µM) [%] | effect on intracellular tyrosinase activity [2] | tyrosinase protein expression ([3]; 6.25, 12.5 and 25 μM, 48 h) | viability at 48 h, 100 µM ([6]; 100 µM, 48 h, MTT, read-out: viable cells) [%]
1 | OC[C@H]1O[C@@H](Oc2ccc(O)cc2)[C@H](O)[C@@H](O)[C@@H]1O [Arbutin, reference compound] | 124.06 | 130.75 | significantly reduced the expression levels |  |  |  |  |  |  |  |  |  |  | 
2 | Oc1c(O)c(Br)c(COCc2c(Br)c(O)c(O)c(Br)c2Br)c(Br)c1Br [Compound 3, bis-(2,3,6-tribromo-4,5-dihydroxybenzylmethyl ether)] |  |  |  | 111 ± 4.95 | 2.92 ± 0.04 | 1.98 | competitive-type inhibition | 86.9 | 98.68 | reduced the melanin content in a dose-dependent manner | 94.81 | decreased in a dose-dependent manner | inhibited α-MSH-induced accumulation of tyrosinase proteins in a concentration-dependent manner | 
3 | COCc1c(Br)c(O)c(O)c(Br)c1Br [Compound 2, 2,3,6-tribromo-4,5-dihydroxybenzyl methyl ether] |  |  |  | > 300 | 113.9 ± 0.75 |  |  |  |  | no significant reduction |  | did not show a significant reduction | did not reduce expression | ~100
